# Results taken from patent publication US20150157672A1, “KITS AND METHODS FOR SUSTAINED WEIGHT LOSS” (PHYTOLOGY LABS, INC., priority 2013, published 2015).
# Where two headings read alike, the source gives them in different places.
# Tests used:
# [1] = cited from earlier work; for thermogenic response: in man
# [2] = Estimated effect of first, second and third treatment phase (Tables 1-3); format: in vivo, human
# Excerpt: In some embodiments the first treatment phase may comprise administering at least one weight loss agent. In some embodiments, the at least one weight loss agent is a protein kinase A modulator, a neurotransmitter modulator or a combination thereof. In some embodiments, the weight loss agents administered during this treatment phase are selected from Camellia sinensis, caffeine, Capsicum sp., 5-hydroxytryptophan, and any combination thereof. In yet other embodiments the first treatment phase comprises administering Camellia sinensis, caffeine, Capsicum sp., 5-hydroxytryptophan, or any combination thereof. […] In some embodiments, the second treatment phase comprises administering at least one weight loss agent. In some embodiments, the at least one weight loss agent is a macro nutrient absorption modulator, a neurotransmitter modulator or a combination thereof. In some embodiments, the at least one weight loss agent is selected from Phaseolus vulgaris, […] gabonensis, Rhodiola rosea, and any combination thereof. In yet other embodiments the second treatment phase comprises administering Phaseolus vulgaris, […] gabonensis, Rhodiola rosea, or any combination thereof. […] In some embodiments, the third treatment phase comprises administering at least one weight loss agent. In some embodiments, the at least one weight loss agent is a Protein Kinase A modulator, Adenosine Mono-Phosphate activated Kinase (AMPk) modulator, or a combination thereof. In some embodiments, the at least one weight loss agent is selected from Coffea canefora, Coleus forskholii, yohimbine, caffeine, and any combination thereof. In yet other embodiments, the third treatment phase comprises administering Coffea canefora, Coleus forskholii, yohimbine, caffeine, or any combination thereof.
# [3] = when ingested; cited from earlier work
# [4] = Rough point estimate of effect size by weight loss agent from published studies (Table 7); format: in vivo, human
# Protocol: A rough point estimate of the effect size by weight loss agent was developed using data from published studies.
# The ΔWt. LossMAX for Garcinia sp. from 1.0 kg to 3.0 kg assumes the dose response curve model is valid, which has not been proven. The dosage of Phaseolus vulgaris is measured in α-amylase blocking units. Coffea canefora is administered as Syetol®, a commercial preparation most commonly used in the studies (400 mg). Crocus sativus dosages for depression are much lower 30 mg and have been shown for extracts of both stigma & leaf.
# [5] = Systematic review and meta-analysis of randomized clinical trials of Garcinia extract (HCA) with dose-response curve; format: in vivo, human; conditions: curve ΔWt=ΔWtmax(1−e^−b*dosage)
# Excerpt: A systematic review and meta-analysis to examine the efficacy of Garcinia extract, hydroxycitric acid (HCA) as a weight reduction agent, using data from randomized clinical trials, found a small, statistically significant difference in weight loss of -0.9 kg between HCA and placebo. A nonlinear, significant (P<0.05) correlation between the dosage of HCA and body weight loss seems to exist. This relationship follows a curve ΔWt=Δ[…]) which is consistent with a first order ligand binding kinetics. […] However, HCA quickly approaches its asymptotic maximum by 2800 mg/day.
# [6] = Kinetic decay model of weight loss fitted to published clinical data (efficacy benchmarks); format: in vivo, human; conditions: for ΔWt. LossMAX: model parameter; for Decay Coeff. (−b): model Weight (t)=Weight Plateau+ΔWt. LossMAX e^-bt, across studies and doses
# Excerpt: In order to better understand the underlying dynamics of weight loss agents over time, several weight loss agents were selected to study and attempt to model. These included a wide range of weight loss agents including dietary supplements (C. sinensis & alginate), OTC drugs (orlistat), and Rx drugs (sibutramine, Qysmia®). Over time, more may be added to the database to test hypotheses and to improve the modeling of the underlying weight loss dynamics.
# All agents followed the same basic kinetic model: Weight (t)=Weight Plateau+ΔWt. LossMAX e-^bt, where Weight Plateau=Starting Weight−ΔWt. LossMAX. Where t=time, b=decay coefficient, and ΔWt. LossMAX=maximum amount of weight lost, which appears to be a function of weight loss agent, dosage, and patient population. […] It does appear to vary by weight loss agent. The variation within a weight loss agent appears to be fairly low. It is critical to note that these are only the initial observations based upon estimating the results using published data. The raw data, more observations, and a more sophisticated statistical analysis are needed in order to make more definitive claims. The fact that all weight loss agents seem to follow the same relationship supports the adaptation hypothesis. […] All of the observed data fit the model well. The decay coefficient was estimated to be 0.1±0.02, and all the studies except Rossner fell within one standard deviation of this mean. The decay coefficient for the Rossner study was 0.05, which is slightly more than two standard deviations from the mean. However, it is important to put this in context. The maximum difference between the model using 0.05 as the decay coefficient and 0.10 is about 2.0 kg, which falls within the observation error range. It is unclear whether this difference was due to random chance, to variation caused by the inherent error arising from estimating the data from the published graphs, or to something more fundamental. […] LossMAX for diabetic vs non-diabetic patients on orlistat. […] However, given the number of studies analyzed, it is premature to draw any definitive conclusions beyond that these are interesting data points from which a hypothesis can be generated. All of the observed data for Qysmia fit the model well, see FIG. 8. The decay coefficient was estimated to be 0.08±0.01. The decay coefficient was very consistent across all the studies and doses. Given these were registration studies, the larger sample sizes may have allowed for better resolution. The observed data for sibutramine also fit the model well. Since there were more studies, it was impractical to show them all in a graph. The decay coefficient was estimated to be 0.14±0.04. Sibutramine offered the widest number of conditions studied, and as expected, there was more variability in the decay coefficient.
# [7] = FIG. 2; cited from earlier work
# α2-adrenergic receptor = conditions: functions as an antagonist; cited from earlier work
# α1-receptor = conditions: functions as an antagonist; cited from earlier work
compound,measurement,setting,value
N[C@@H](Cc1c[nH]c2ccc(O)cc12)C(=O)O [5-hydroxytryptophan],reduction in energy intake,[1]; spontaneous reduction of calorie consumption,about 243 Kcal/day
same,Estimated kcal/day reduction,[2]; first treatment phase,240 kcal/day
same,Estimated ΔWt. LossMAX,[2]; first treatment phase,1.5 to 2.5 kg
same,adverse effects,[3],nausea and diarrhea
same,Kcal/d,[4]; Dosage 50-900 mg oral,400 kcal/day
same,Kg./wk,[4]; Dosage 50-900 mg oral,0.2 Kg./wk
same,ΔWt. LossMAX,[4]; Dosage 50-900 mg oral,1.5 to 2.5 kg
"O=C(O)CC(O)(C(=O)O)C(O)C(=O)O (centres unmarked) [HCA, hydroxycitric acid]",ΔWtmax,[5],about 3.5 kg
"CCCCCCCCCCC[C@@H](C[C@@H]1OC(=O)[C@H]1CCCCCC)OC(=O)[C@H](CC(C)C)NC=O [Orlistat, orlistat]",ΔWt. LossMAX,[6]; Dosage 120 mg (diabetics),4.3 kg
same,ΔWt. LossMAX,[6]; Dosage 120 mg,7.1 kg
same,decay coefficient,[6]; Rossner study,0.05
same,Decay Coeff. (−b),[6],0.11 ± 0.02
same,Decay Coeff. (−b),[6]; listed as orlistat,0.1±0.02
CC(C)(N)Cc1ccccc1 [Phentermine],time to reduction or complete cessation of weight loss,[7],about 4 weeks
"CC(C)CC(N(C)C)C1(c2ccc(Cl)cc2)CCC1 (centres unmarked) [Sibutramine, sibutramine]",ΔWt. LossMAX,[6]; Dosage 1 mg,3.7 kg
same,ΔWt. LossMAX,[6]; Dosage 5 mg,4.5 kg
same,ΔWt. LossMAX,[6]; Dosage 10 mg,8.4 kg
same,ΔWt. LossMAX,[6]; Dosage 15 mg,7.3 kg
same,ΔWt. LossMAX,[6]; Dosage 20 mg,8.5 kg
same,ΔWt. LossMAX,[6]; Dosage 30 mg,9.1 kg
same,Decay Coeff. (−b),[6],0.14 ± 0.04
same,Decay Coeff. (−b),[6]; listed as sibutramine,0.14±0.04
Cn1c(=O)c2c(ncn2C)n(C)c1=O [caffeine],raise of energy expenditure,[1]; 600 mg/day dose,63 kcal/day
same,thermogenic response,[1]; dose 100 mg,4-5%
same,thermogenic response,[1]; dose 200-250 mg,10-12%
same,thermogenic response,[1]; dose 400-450 mg,16%
same,minimum (or near minimum) dose with demonstrable stimulatory effect on resting metabolic rate (RMR),[1]; in vivo,100 mg
same,Estimated kcal/day reduction,[2]; first treatment phase,60 kcal/day
same,Estimated ΔWt. LossMAX,[2]; first treatment phase,0.5 kg
same,Estimated kg/wk reduction,[2]; third treatment phase,0.05 kg/wk
same,Estimated ΔWt. LossMAX,[2]; third treatment phase,0.5 kg
same,Kcal/d,[4]; Dosage 500-700 mg/day,50 to 75 kcal/day
COC(=O)[C@@H]1[C@H]2C[C@H]3c4[nH]c5ccccc5c4CCN3C[C@@H]2CC[C@@H]1O [yohimbine],Estimated kg/wk reduction,[2]; third treatment phase,0.1 kg/wk
same,Estimated ΔWt. LossMAX,[2]; third treatment phase,1.5 kg
same,Kg./wk,[4]; Dosage 20 mg/day,0-0.16 Kg./wk
same,ΔWt. LossMAX,[4]; Dosage 20 mg/day,0 to 1.5 kg
same,affinity for the α2-adrenergic receptor,α2-adrenergic receptor,high affinity
same,affinity for the α1-receptor,α1-receptor,moderate affinity
